In patent US20120028358A1, “METHOD FOR INCREASING RETROVIRAL INFECTIVITY” (priority 2010, published 2012):
“Also recorded” adds a separate entry of the source.

Tests used:
[1] = test system: Phoenix cells; assay: Viral titer of conditioned medium by quantitative RT-PCR (GFP region of viral RNA); assay type: cell-based
Procedure: Vectors and delivery systems: pBMN-GFP, a retroviral vector that expresses GFP driven by the MMLV's promoter in Phoenix and other cells was purchased from Orbigen, Inc. (San Diego, Calif.). Packaging cells were transfected with pBMN-GFP using FuGENE 6 reagent following manufacture instructions. Stably transfected Phoenix cells were selected by GFP expression using flow cytometry and then used for experiments. For virus propagation, packaging cells were cultured in growth medium for at least 12 hours. Virus was collected with cultured medium, filtered, supplemented with hexadimethrine bromide (polybrene) to a final concentration of 4 μg/ml and applied directly to target cells. The level of viral RNA in collected medium was determined by quantitative PCR using iScript One-Step RT-PCR kit (with SYBR Green, Bio-Rad, 170-8893) using primers for the GFP region of the viral RNA following manufacture instructions.
We first tested the ability of dexamethasone to increase retroviral protein production in Phoenix cells with integrated pro-viruses using GFP as a reporter. […] We then analyzed the Phoenix cells for GFP expression by flow cytometry. […] To determine if this increase in GFP expression correlated with an increase in viral titer in the supernatant, we performed quantitative RT-PCR on the conditioned medium using primers for the GFP region of the viral RNA.

[2] = test system: rat PMVEC; assay: Intensity of GFP expression in infected target cells (pro-viral LTR promoter); assay type: cell-based; conditions: mifepristone in conditioned medium
Procedure: Flow cytometry analysis: Cells were harvested by 0.05% trypsin/0.53 mM EDTA digestion, washed, re-suspended in cultured medium and analyzed directly by FACScan in the University of South Alabama Flow Cytometry Core.
To assess whether dexamethasone had the same stimulatory effect on the LTR promoter of the pro-virus integrated into the target cells that it did on packaging cells (FIG. 1A), the expression level of GFP in infected cells was also measured. […] Dexamethasone had no effect on cell growth over 7 days in either retrovirus producing or target cells (data not shown).

`CC#C[C@]1(O)CC[C@H]2[C@@H]3CCC4=CC(=O)CCC4=C3[C@@H](c3ccc(N(C)C)cc3)C[C@@]21C` [mifepristone, 11-beta-(4-dimethylaminophenyl)-17-beta-hydroxy-17-alpha-(1-propynyl)-estra-4,9-dien-3-one] was tested, and the “Effect on enhancing effect of dexamethasone on virus production” value ([1]; dexamethasone and mifepristone added to packaging cells at the same time) was “partially blocks; also recorded: completely inhibited”, the “Viral levels in the medium” value ([1]; mifepristone 0-20 μmol, without dexamethasone) was “no effect” and the “GFP expression in infected target cells” value [2] was “did not alter”.
